This is an account of results in patent US10045980B2, “Inhibitor of p38 map kinase” (RESPIVERT LTD, priority 2014, dated 2018).

Test [1] concerns the target T1, GSK 3α enzyme isoform (Homo sapiens, UniProt P49840).
T1 construct: purchased Life Technologies
Nature of the test: GSK 3α enzyme inhibition (Z-LYTE FRET). The note with it: read-out: IC50 Values for Enzyme Inhibition GSK3α. Format: biochemical. As to the method: (§1) The enzyme inhibitory activities of the compound disclosed herein were determined by FRET using synthetic peptides labelled with both donor and acceptor fluorophores (Z-LYTE, Life Technologies, Paisley, UK).
Development reagent (protease, 5 μL) was added for 1 h prior to detection in a fluorescence microplate reader (EnVision, Perkin Elmer).
(§2) In all cases, the site-specific protease cleaves non-phosphorylated peptide only and eliminates the FRET signal. Phosphorylation levels of each reaction were calculated using the ratio of coumarin emission (donor) over fluorescein emission (acceptor), for which low ratios indicate high phosphorylation and high ratios indicate low phosphorylation levels.

Test [2] deals with BEAS2B cells. Nature of the test: Poly I:C-induced ICAM-1 expression in BEAS2B cells. Format: cell-based. The note with it: Homo sapiens, BEAS-2B, 18 h after poly I:C transfection, read-out: PolyIC/ICAM1 IC50 (BEAS2B). As for the experimental part:
Poly I:C was used in these studies as a simple, RNA virus mimic. Poly I:C-Oligofectamine mixture (2% Oligofectamine±1 μg/mL Poly I:C, 25 μL; Life Technologies and Invivogen Ltd., San Diego, Calif., respectively) was transfected into BEAS2B cells (human bronchial epithelial cells, ATCC). Cells were pre-incubated with final concentrations of test compounds for 2 h and the level of ICAM-1 expression on the cell surface was determined by cell-based ELISA. […]
The cells were washed with PBS-Tween (3×200 μL) and incubated with the secondary antibody (100 μL; HRP-conjugated anti-rabbit IgG, Dako Ltd., Glostrup, Denmark). […] The ICAM-1 signal was detected by reading the absorbance at 450 nm against a reference wavelength of 655 nm using a spectrophotometer. The cells were then washed with PBS-Tween (3×200 μL) and total cell numbers in each well were determined by reading absorbance at 595 nm after Crystal Violet staining (50 μL of a 2% solution in PBS) and elution by 1% SDS solution (100 μL) in PBS. The measured OD 450-655 readings were corrected for cell number by dividing with the OD595 reading in each well. The inhibition of ICAM-1 expression was calculated at each concentration of test compound by comparison with vehicle control.

In test [3] the test system is sputum macrophages from COPD patients. The test can be described thus: Cytokine production in LPS-treated sputum macrophages from COPD patients. Format: cell-based. As to conditions: Homo sapiens, Macrophage; at 0.1 μg/mL; LPS 1 μg/mL, 18 h; read-out: Percent Inhibition IL-6. As for the experimental part: Patients with COPD inhaled a nebulised solution of 3% (w/v) hypertonic saline using an ultrasonic nebuliser (Devilbiss, Carthage, Mo.) with tidal breathing for 5 min. This procedure was repeated a maximum of three times until enough sputum was obtained. The sputum samples were homogenized and mixed vigorously using a vortex mixer in 0.02% v/v dithiothreitol (DTT) solution. The samples were re-suspended in PBS (40 mL) followed by centrifugation at 1500 rpm at 4° C. for 10 min to obtain sputum cell pellets. The pellets were washed with PBS (40 mL). […]
Where appropriate, 1 μL of a solution containing either the test compound or reference article at the stated concentrations (either 0.1 μg/mL, 0.01 μg/mL, or 0.001 μg/mL) or alternatively 1 μL of DMSO as the vehicle control was added to each well (200 μL in media) and the cells were incubated for 2 h. […] After washing with 200 μL wash buffer per well, the beads were resuspended in sheath fluid (150 μL) and analyzed immediately. The level of each analyte in the supernatant was calculated using Xcel Fit software with a 4 or 5-parameter equation using each standard curve. The inhibitions of each cytokine production were calculated at each concentration by comparison with vehicle control.

The target in test [4] is T2, c-Src (Homo sapiens, UniProt P12931).
T2 construct: purchased Life Technologies
T2 sequence (P12931 whole entry): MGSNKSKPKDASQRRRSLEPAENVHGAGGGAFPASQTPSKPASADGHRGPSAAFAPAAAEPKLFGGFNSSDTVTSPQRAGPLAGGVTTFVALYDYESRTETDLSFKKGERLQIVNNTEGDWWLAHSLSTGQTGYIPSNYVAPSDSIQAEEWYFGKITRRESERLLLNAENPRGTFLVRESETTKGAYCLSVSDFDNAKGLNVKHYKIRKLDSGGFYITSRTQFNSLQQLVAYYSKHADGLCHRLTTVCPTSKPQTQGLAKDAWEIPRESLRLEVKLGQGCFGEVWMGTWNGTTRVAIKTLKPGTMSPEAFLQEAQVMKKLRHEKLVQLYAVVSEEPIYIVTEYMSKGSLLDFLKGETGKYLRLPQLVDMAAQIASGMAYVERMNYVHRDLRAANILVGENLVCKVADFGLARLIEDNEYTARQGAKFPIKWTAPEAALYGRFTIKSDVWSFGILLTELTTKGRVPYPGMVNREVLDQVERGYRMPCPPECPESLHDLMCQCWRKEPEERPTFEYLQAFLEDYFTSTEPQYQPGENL
Nature of the test: c-Src enzyme inhibition (Z-LYTE FRET). Format: biochemical. As to the method:
as §1
The relevant enzyme (1000 ng/mL, 1400 ng/mL or 2000 ng/mL respectively, 2.5 μL) was incubated with the test compound (either 40 μg/mL, 12 μg/mL, 4 μg/mL, 1.2 μg/mL, 0.4 μg/mL, 0.12 μg/mL, 0.04 μg/mL, 0.012 μg/mL, 0.004 μg/mL or 0.0012 μg/mL, 2.5 μL each) for 2 h at RT. The FRET peptides (8 μM, 2.5 μL), and appropriate ATP solutions (2.5 μL, 800 μM for c-Src, and 60 μM ATP for HCK and Syk) were then added to the enzyme/compound mixtures and incubated for 1 h at RT. Development reagent (protease, 5 μL) was added for 1 h prior to detection in a fluorescence microplate reader (EnVision, Perkin Elmer).
as §2

As a reminder, the inhibition is how much of the control response was suppressed.

T1 sequence (P49840 whole entry, canonical isoform): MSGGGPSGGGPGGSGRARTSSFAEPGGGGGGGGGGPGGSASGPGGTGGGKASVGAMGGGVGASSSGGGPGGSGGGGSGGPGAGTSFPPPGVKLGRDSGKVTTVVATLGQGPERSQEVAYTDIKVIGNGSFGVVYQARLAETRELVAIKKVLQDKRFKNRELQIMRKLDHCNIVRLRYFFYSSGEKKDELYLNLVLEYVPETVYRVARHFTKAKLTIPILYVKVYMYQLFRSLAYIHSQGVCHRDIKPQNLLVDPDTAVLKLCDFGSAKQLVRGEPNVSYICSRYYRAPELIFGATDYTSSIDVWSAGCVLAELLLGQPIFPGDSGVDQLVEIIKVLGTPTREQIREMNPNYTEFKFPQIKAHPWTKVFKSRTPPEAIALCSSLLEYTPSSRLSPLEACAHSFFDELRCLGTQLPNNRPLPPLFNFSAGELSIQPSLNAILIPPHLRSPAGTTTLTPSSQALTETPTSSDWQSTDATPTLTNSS

Regarding `CCc1cncc(Nc2cc(COc3ccc(NC(=O)Nc4cc(C(C)(C)C)nn4-c4ccc(C)cc4)c4ccccc34)ccn2)n1` [Compound of the invention, 1-(3-(tert-butyl)-1-(p-tolyl)-1H-pyrazol-5-yl)-3-(4-((2-((6-ethylpyrazin-2-yl)amino)pyridin-4-yl)methoxy)naphthalen-1-yl)urea], the results for the IC50 in test [1], in test [2] and in test [4] were greater than 15100 nM, 61.1 nM and 199 nM, respectively. Besides, in test [3], the inhibition at 0.1 µg/mL is 48 ± 9%.
